ChEMBL document CHEMBL1201862, “PubChem BioAssay data set” (2004)
Active and inactive are the calls of the source.

Legend:
SUMO-activating enzyme = SUMO-activating enzyme (Homo sapiens, UniProt Q9UBT2); experiment: blockers of UBC9-mediated SUMO conjugation – biochemical, AlphaScreen, SUMOylation inhibitor project, confirmation (AID 2018); format: functional
[1] = tested on: Streptococcus sp. 'group A'; experiment: Streptococcus pyogenes SK(-)GAS viability under kanamycin – luminescence, BacTiterGlo, confirmation, counter-screen for streptokinase expression inhibitor project, dose response (AID 1900); format: functional, organism-based; conditions: read-out: EC50
Streptokinase A = target: T1, Streptokinase A (Streptococcus pyogenes serotype M1, UniProt P10520); experiment: viability-normalized secreted streptokinase activity reduction – plasminogen activation absorbance, OD405, dose response (AID 1914); format: functional, Streptococcus pyogenes M1 GAS;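 further: secreted streptokinase activity via plasminogen activation per viability signal from cell pellet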
T1 sequence (P10520 whole entry): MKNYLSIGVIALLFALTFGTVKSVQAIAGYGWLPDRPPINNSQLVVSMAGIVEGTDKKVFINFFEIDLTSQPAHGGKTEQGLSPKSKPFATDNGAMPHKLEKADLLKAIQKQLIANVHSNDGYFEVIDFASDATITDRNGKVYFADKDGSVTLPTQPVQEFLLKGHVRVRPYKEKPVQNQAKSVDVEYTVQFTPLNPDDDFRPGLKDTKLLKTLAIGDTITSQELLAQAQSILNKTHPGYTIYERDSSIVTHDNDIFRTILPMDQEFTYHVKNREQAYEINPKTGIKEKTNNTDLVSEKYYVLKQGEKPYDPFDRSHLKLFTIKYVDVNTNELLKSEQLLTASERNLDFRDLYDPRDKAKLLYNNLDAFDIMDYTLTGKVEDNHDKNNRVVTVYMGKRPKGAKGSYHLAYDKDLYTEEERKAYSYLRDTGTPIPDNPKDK

[2] = target: T2, RNA-binding protein pos-1 (Caenorhabditis elegans, UniProt G5EF15); experiment: disruptors of C. elegans POS-1 RNA interaction – biochemical, fluorescence polarization, dose response (AID 1964);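 further: purified POS-1 fused to maltose binding protein made in E. coli; potency of compounds blocking POS-1 binding to fluorescent RNA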
T2 sequence (G5EF15 whole entry): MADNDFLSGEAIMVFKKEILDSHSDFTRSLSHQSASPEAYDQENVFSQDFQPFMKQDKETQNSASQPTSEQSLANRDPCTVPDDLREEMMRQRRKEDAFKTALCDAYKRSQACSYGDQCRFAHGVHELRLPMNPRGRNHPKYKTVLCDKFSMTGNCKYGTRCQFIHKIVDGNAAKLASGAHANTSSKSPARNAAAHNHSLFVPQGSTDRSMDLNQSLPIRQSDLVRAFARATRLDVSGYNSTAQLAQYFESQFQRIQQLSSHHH

[3] = target: T3, Rac GTPase-activating protein 1 (Homo sapiens, UniProt Q9H0H5); experiment: blockers of MgcRacGAP-driven Rac1 GTP hydrolysis – biochemical, ADP Hunter fluorescence, primary and confirmatory, confirmation (AID 624330); format: functional
T3 sequence (Q9H0H5 whole entry): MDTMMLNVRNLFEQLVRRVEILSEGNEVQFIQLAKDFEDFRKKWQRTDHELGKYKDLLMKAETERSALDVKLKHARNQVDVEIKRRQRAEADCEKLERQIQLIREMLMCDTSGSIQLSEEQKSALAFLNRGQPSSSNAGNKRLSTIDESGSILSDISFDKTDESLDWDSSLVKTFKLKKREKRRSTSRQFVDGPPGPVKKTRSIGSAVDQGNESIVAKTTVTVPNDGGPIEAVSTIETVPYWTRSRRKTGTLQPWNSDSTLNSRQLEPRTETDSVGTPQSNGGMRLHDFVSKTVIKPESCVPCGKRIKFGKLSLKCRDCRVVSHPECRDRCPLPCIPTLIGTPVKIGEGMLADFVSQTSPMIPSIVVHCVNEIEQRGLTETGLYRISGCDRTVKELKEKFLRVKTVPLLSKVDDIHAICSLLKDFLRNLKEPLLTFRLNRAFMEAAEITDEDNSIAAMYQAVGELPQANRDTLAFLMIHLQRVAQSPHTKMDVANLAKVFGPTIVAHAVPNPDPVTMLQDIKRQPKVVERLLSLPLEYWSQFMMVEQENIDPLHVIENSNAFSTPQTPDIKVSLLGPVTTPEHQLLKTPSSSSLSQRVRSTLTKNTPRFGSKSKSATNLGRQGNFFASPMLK

[4] = Luminescence Cell-Based Dose Retest to Confirm Inhibitors of Cancer Stem Cells. [Related pubchem assays (depositor defined):AID2717, AID2721]; format: functional, Homo sapiens; conditions: Homo sapiens
[5] = target: Matrix metalloproteinase-14 (Homo sapiens, UniProt P50281); experiment: Dose Response confirmation of uHTS hits for a small molecule inhibitors of MT1-MMP activation in a fluorescence assay set 2.; format: functional
[6] = target: Tyrosine-protein kinase SYK (Homo sapiens, UniProt P43405); format: functional
[7] = target: MAP kinase-activated protein kinase 2 (Homo sapiens, UniProt P49137); format: functional;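 further: measured as one member of a kinome-wide kinase panel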
MAP kinase-activated protein kinase 2, sequence (P49137 whole entry): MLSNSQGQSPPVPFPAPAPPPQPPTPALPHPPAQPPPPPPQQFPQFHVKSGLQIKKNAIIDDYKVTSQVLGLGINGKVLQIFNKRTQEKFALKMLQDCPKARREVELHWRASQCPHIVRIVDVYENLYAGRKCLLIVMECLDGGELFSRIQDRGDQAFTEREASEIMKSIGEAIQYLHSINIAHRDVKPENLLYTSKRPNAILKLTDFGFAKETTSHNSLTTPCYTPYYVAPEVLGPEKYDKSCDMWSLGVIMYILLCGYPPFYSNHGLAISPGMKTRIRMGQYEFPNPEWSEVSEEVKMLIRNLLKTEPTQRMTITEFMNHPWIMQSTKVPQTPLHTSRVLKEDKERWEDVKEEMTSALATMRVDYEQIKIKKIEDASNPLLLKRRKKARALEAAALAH

[8] = target: MAP/microtubule affinity-regulating kinase 3 (Homo sapiens, UniProt P27448); format: functional;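 further: MARK3 affinity measured as one member of a kinome panel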
MAP/microtubule affinity-regulating kinase 3, sequence (P27448 whole entry): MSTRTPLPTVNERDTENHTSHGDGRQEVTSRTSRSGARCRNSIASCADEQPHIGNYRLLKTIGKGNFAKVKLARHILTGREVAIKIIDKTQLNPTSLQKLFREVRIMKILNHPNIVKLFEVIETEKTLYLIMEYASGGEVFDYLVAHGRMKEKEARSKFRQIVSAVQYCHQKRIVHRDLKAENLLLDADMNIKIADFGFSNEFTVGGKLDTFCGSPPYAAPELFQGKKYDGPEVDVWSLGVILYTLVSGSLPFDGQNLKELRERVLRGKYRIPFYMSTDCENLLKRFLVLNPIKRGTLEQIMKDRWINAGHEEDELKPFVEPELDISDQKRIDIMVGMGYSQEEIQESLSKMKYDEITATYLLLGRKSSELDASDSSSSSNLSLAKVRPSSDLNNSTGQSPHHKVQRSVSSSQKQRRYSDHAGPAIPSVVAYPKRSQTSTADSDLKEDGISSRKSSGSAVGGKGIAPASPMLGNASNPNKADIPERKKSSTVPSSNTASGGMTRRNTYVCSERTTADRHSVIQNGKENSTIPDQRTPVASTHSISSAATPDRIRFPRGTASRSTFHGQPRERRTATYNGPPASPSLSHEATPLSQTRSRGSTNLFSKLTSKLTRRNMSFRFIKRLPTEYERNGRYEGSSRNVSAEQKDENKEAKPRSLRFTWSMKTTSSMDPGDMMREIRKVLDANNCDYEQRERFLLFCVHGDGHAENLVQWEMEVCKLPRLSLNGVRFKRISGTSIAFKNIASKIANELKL

[9] = target: Glycogen synthase kinase-3 alpha (Homo sapiens, UniProt P49840); format: functional;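 further: GSK3A result taken from a broad kinome-wide kinase panel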
[10] = target: Dual specificity tyrosine-phosphorylation-regulated kinase 4 (Homo sapiens, UniProt Q9NR20); format: functional
Dual specificity tyrosine-phosphorylation-regulated kinase 4, sequence (Q9NR20 whole entry): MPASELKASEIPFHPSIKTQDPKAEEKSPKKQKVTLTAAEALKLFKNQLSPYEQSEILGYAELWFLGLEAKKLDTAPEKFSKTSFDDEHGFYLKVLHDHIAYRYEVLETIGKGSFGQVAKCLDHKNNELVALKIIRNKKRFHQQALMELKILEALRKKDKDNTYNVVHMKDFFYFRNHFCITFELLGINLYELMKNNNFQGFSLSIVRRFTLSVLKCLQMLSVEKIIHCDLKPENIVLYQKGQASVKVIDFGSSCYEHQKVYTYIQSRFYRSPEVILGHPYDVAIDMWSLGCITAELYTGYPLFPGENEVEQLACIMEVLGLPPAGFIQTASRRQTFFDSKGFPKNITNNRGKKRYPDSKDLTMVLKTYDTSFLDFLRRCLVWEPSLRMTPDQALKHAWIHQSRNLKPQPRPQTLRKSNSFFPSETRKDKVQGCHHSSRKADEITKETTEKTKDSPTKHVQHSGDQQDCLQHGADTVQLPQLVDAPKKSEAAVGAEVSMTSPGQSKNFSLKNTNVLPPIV

[11] = target: Vascular endothelial growth factor receptor 3 (Homo sapiens, UniProt P35916); format: functional;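 further: value from a kinome-wide profiling panel, with FLT4 as the panel member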
[12] = target: 3-phosphoinositide-dependent protein kinase 1 (Homo sapiens, UniProt O15530); format: functional;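 further: value comes from the Navigating the Kinome panel, PDPK1 member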
3-phosphoinositide-dependent protein kinase 1, sequence (O15530 whole entry): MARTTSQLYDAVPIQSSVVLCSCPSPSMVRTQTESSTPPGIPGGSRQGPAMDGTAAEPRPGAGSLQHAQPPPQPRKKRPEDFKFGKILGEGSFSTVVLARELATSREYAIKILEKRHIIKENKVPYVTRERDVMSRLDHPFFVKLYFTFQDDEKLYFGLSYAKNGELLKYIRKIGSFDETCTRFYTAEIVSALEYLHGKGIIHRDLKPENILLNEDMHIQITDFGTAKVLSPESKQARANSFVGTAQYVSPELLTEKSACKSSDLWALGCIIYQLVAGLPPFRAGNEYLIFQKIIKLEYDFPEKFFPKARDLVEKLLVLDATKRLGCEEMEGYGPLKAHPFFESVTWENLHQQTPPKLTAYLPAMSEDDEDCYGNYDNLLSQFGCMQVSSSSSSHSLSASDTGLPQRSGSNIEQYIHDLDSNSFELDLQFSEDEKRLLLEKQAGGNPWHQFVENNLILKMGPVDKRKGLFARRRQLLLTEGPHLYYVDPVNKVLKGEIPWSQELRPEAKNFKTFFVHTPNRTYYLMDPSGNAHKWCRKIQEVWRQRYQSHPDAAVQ

[13] = target: STE20-like serine/threonine-protein kinase (Homo sapiens, UniProt Q9H2G2); format: functional
[14] = target: Macrophage colony-stimulating factor 1 receptor (Homo sapiens, UniProt P07333); format: functional;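 further: value comes from the Navigating the Kinome screening panel, CSF1R member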
Macrophage colony-stimulating factor 1 receptor, sequence (P07333 whole entry): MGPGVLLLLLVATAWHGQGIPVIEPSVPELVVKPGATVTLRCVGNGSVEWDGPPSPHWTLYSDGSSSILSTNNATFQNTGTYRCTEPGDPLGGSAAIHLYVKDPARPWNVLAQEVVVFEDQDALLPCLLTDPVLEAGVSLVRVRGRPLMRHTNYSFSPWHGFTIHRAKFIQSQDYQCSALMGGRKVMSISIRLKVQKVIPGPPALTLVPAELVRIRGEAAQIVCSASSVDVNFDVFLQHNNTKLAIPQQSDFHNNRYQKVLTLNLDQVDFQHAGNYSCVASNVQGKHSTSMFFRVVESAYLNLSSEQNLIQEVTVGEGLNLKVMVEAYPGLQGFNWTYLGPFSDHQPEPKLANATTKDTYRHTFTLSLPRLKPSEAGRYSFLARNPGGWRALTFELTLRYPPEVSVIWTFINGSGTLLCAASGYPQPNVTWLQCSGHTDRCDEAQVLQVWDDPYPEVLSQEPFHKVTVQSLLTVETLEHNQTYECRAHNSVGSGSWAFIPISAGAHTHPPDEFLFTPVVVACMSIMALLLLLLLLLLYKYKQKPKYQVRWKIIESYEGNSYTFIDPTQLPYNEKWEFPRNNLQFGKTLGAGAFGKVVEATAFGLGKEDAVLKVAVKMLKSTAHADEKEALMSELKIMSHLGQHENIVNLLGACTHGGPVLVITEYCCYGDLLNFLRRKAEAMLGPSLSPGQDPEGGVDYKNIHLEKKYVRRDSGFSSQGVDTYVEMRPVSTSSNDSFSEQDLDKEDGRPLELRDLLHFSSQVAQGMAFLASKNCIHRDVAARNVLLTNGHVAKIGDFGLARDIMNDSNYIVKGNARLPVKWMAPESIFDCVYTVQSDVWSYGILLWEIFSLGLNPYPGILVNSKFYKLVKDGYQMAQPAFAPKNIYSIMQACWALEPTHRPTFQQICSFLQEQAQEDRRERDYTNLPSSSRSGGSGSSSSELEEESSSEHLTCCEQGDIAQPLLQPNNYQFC

[15] = target: Tyrosine-protein kinase FRK (Homo sapiens, UniProt P42685); format: functional;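 further: FRK tested as one member of a kinome panel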
Tyrosine-protein kinase FRK, sequence (P42685 whole entry): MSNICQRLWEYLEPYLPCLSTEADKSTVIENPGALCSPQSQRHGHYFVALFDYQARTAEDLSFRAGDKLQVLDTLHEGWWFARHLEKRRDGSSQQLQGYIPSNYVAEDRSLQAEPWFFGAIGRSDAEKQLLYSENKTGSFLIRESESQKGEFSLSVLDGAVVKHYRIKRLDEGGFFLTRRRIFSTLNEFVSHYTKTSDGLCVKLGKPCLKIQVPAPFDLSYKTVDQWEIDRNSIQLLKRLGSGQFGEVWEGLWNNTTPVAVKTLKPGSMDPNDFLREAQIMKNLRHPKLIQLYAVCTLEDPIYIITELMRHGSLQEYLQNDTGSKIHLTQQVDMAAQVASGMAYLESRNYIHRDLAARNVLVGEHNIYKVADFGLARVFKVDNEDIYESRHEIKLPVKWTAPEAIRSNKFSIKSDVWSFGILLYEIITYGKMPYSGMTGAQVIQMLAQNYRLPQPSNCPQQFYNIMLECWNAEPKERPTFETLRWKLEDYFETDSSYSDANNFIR
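Wherever AC50 is given: cells exposed to compound for roughly 70 hours or longer before luminescence read.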

SUMO-activating enzyme, sequence (Q9UBE0 whole entry): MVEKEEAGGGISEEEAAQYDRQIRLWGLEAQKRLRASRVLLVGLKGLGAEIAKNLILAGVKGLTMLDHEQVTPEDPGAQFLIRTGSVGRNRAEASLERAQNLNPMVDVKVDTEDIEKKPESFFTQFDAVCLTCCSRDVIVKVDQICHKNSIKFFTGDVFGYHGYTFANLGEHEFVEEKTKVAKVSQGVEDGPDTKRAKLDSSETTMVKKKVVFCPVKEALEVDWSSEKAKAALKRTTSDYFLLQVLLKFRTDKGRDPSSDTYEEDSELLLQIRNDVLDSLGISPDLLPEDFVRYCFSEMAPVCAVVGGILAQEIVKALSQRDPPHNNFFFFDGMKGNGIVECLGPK
SUMO-activating enzyme, sequence (Q9UBT2 whole entry): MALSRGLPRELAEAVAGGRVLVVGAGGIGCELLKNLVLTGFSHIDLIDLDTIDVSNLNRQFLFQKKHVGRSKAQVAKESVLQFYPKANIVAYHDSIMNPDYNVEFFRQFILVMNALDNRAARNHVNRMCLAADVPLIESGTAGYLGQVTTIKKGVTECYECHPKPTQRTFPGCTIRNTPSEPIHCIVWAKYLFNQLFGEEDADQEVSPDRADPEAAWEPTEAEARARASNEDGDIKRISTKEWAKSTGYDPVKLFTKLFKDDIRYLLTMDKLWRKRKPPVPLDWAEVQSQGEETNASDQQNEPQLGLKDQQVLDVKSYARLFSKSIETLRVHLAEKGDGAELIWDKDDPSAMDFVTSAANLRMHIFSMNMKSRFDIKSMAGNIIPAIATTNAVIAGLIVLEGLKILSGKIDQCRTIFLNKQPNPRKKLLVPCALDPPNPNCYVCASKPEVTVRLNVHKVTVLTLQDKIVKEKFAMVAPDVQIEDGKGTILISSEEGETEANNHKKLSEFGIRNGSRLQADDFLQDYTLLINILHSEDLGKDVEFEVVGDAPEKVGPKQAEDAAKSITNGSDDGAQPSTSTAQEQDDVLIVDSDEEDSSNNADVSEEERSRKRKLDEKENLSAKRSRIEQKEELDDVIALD

CC(=O)NC1C(=O)N(CCN2CCOCC2)c2ccc(F)cc21 (configuration not stated)
IC50 (SUMO-activating enzyme): 5820 nM (active)

O=C1C=C(N2CCCCC2)c2ccccc2C1=O
EC50 [1]: 1880 nM (active) | EC50 (Streptokinase A): 17800 nM (active)

O=C(O)C1Nc2c(O)cc(Cl)c([N+](=O)[O-])c2C2C=CCC12 (configuration not stated)
EC50 [2]: 216000 nM (inconclusive) | IC50 [3]: 27900 nM (active)

Oc1ccc(N=Nc2c(O)ccc3ccccc23)cc1
AC50 [4]: 2380 nM (active) | IC50 [5]: 22800 nM (inactive)

Cc1n[nH]c2ccc(-c3cncc(OCC(N)Cc4cccc(Cl)c4)c3)cc12 (configuration not stated)
Ki [6]: > 1580 nM (inactive) | Ki [7]: 631 nM (active) | Ki [8]: 251 nM (active) | Ki [9]: 50.1 nM (active) | Ki [10]: 316 nM (active) | Ki [11]: 2510 nM (active) | Ki [12]: 2000 nM (active) | Ki [13]: 1000 nM (active) | Ki [14]: > 2510 nM (inactive) | Ki [15]: > 2510 nM (inactive)
